# Laboratory results as given in ChEMBL document CHEMBL5543162, “Discovery of a Novel Orally Bioavailable FLT3-PROTAC Degrader for Efficient Treatment of Acute Myeloid Leukemia and Overcoming Resistance of FLT3 Inhibitors” (J Med Chem, 2024).
# The source made the active and inactive calls. The rule behind the calls is not given here.
# Columns and labels:
# MOLM-13 [1] = experiment: Antiproliferative activity against human MOLM-13 cells incubated for 48 hrs by CCK8 assay; type: functional, cell-based; conditions: MOLM-13, 48 h
# [2] = system: Protein cereblon/Receptor-type tyrosine-protein kinase FLT3 (Homo sapiens), P36888+Q96SW2 [UNDEFINED MUTATION]; experiment: PROTAC activity at CRBN/FLT3-ITD mutant in human MOLM-13 cells assessed as decrease in S6K level at 20 nM by Western blot analysis; type: cell-based; conditions: time <= 12.0 hrs, TDE = time-dependent effect
# Mus musculus = experiment: Anti-leukemic activity in NSG mouse xenografted with human MV4-11 cells expressing luciferase assessed as decrease in CD45+/CD33+ cells proportion in peripheral blood at 1.25 to 10 mg/kg, po administered daily for 3 weeks; type: functional, organism-based; conditions: dose 1.25-10 mg/kg
# MOLM-13 [3] = experiment: Induction of cell cycle arrest at G1 phase in human MOLM-13 cells incubated for 24 hrs by PI/RNase staining based flow cytometry; type: functional; conditions: dose 1-50 nM
# MV4-11 [4] = experiment: Antitumor activity against human MV4-11 cells xenografted in nu/nu mouse at 5 mg/kg, po administered daily for 2 weeks relative to control; type: functional; conditions: MV4-11, 336 h, read-out: TGI
# [5] = Toxicity in nu/nu mouse xenografted with human MV4-11 cells assessed as damage in liver at 1.25 to 10 mg/kg, po administered daily for 2 weeks by H and E staining based analysis; type: organism-based; conditions: in vivo, 336 h, dose 1.25-10 mg/kg
# BaF3 = experiment: Antiproliferative activity against mouse Ba/F3 cells expressing FLT3-ITD D835Y mutant incubated for 48 hrs by CCK8 assay; type: functional, cell-based; conditions: BaF3, 48 h
# [6] = system: Protein cereblon/Receptor-type tyrosine-protein kinase FLT3 (Homo sapiens), P36888+Q96SW2 [UNDEFINED MUTATION]; experiment: PROTAC activity at CRBN/FLT3-ITD in human MV4-11 cells assessed as effect on PI3K-Akt signalling pathway by KEGG analysis; type: cell-based
# MV4-11 [7] = experiment: Antitumor activity against human MV4-11 cells xenografted in nu/nu mouse at 1.25 mg/kg, po administered daily for 2 weeks relative to control; type: functional; conditions: MV4-11, 336 h, read-out: TGI
# Cytochrome P450 2C19 = Cytochrome P450 2C19 (Homo sapiens, UniProt P33261); experiment: Inhibition of CYP2C19 (unknown origin); type: ADME
# [8] = system: Protein cereblon/Receptor-type tyrosine-protein kinase FLT3 (Homo sapiens), P36888+Q96SW2 [UNDEFINED MUTATION]; experiment: PROTAC activity at CRBN/FLT3-ITD mutant in human MOLM-13 cells assessed as decrease in STAT5 level incubated for 12 hrs by Western blot analysis; type: cell-based; conditions: dose <= 20.0 nM
# MV4-11 [9] = experiment: Antitumor activity against human MV4-11 cells xenografted in nu/nu mouse assessed as decrease in Ki67 level at 1.25 to 10 mg/kg, po administered daily for 2 weeks by IHC analysis; type: functional, organism-based; conditions: dose 1.25-10 mg/kg
# [10] = Clearance in Sprague-Dawley rat at 1 mg/kg, iv measured for 24 hrs by LC-MS/MS analysis; type: ADME, organism-based; conditions: in vivo
# [11] = system: Protein cereblon/Receptor-type tyrosine-protein kinase FLT3 (Homo sapiens), P36888+Q96SW2 [UNDEFINED MUTATION]; experiment: PROTAC activity at CRBN/FLT3-ITD mutant in human MV4-11 cells assessed as protein degradation at 20 nM by Western blot analysis; type: cell-based; conditions: time <= 12.0 hrs, TDE = time-dependent effect
# [12] = system: Protein cereblon/Receptor-type tyrosine-protein kinase FLT3 (Homo sapiens), P36888+Q96SW2 [UNDEFINED MUTATION]; experiment: PROTAC activity at CRBN/FLT3-ITD mutant in human MV4-11 cells assessed as decrease in STAT5 level incubated for 12 hrs by Western blot analysis; type: cell-based; conditions: dose <= 20.0 nM
# [13] = Stability in rat liver microsomes assessed as half life; type: ADME, Microsome
# Cytochrome P450 2C8 = molecular target: T1, Cytochrome P450 2C8 (Homo sapiens, UniProt P10632); experiment: Inhibition of CYP2C8 (unknown origin); type: ADME
# T1 sequence (P10632 whole entry): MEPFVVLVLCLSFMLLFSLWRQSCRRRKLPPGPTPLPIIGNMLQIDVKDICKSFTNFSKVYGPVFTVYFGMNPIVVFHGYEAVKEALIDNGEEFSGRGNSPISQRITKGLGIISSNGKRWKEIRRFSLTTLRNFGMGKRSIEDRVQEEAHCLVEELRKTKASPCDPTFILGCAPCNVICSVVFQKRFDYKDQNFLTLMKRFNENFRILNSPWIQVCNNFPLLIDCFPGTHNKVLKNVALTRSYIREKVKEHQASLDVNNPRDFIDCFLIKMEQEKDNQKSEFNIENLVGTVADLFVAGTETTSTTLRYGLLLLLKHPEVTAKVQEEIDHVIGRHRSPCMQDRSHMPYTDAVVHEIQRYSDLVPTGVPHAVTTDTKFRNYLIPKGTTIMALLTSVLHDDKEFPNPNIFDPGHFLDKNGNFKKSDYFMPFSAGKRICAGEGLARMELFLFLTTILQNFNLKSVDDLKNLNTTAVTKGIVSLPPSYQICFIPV
# [14] = Toxicity in NSG mouse xenografted with human MV4-11 cells expressing luciferase assessed as physiological change at 10 mg/kg, po administered daily for 3 weeks; type: organism-based; conditions: in vivo, 504 h
# [15] = molecular target: Protein cereblon/Receptor-type tyrosine-protein kinase FLT3 (Homo sapiens, UniProt P36888+Q96SW2); experiment: (§1) PROTAC activity at CRBN/FLT3-ITD mutant in human MV4-11 cells assessed as protein degradation by Western blot analysis; type: cell-based
# [16] = system: Protein cereblon/Receptor-type tyrosine-protein kinase FLT3 (Homo sapiens), P36888+Q96SW2 [UNDEFINED MUTATION]; experiment: as §1; type: cell-based
# [17] = Volume of distribution at steady state in Sprague-Dawley rat at 1 mg/kg, iv measured for 24 hrs by LC-MS/MS analysis; type: ADME, organism-based; conditions: in vivo, read-out: Vdss
# MV4-11 [18] = experiment: Induction of apoptosis in human MV4-11 cells incubated for 24 hrs by Annexin V-FITC/PI staining based flow cytometry; type: functional, cell-based; conditions: dose 25-100 nM
# MV4-11 [19] = experiment: Antitumor activity against human MV4-11 cells expressing luciferase xenografted in NSG mouse assessed as increase in animal survival at 10 mg/kg, po administered daily for 3 weeks and measured for 77 days; type: functional, organism-based; conditions: time 77.0 day
# [20] = system: Protein cereblon/Receptor-type tyrosine-protein kinase FLT3 (Homo sapiens), P36888+Q96SW2 [UNDEFINED MUTATION]; experiment: PROTAC activity at CRBN/FLT3-ITD mutant in human MOLM-13 cells assessed as protein degradation at 100 nM incubated for 8 hrs in presence of bortezomib by Western blot analysis; type: cell-based
# MV4-11 [21] = experiment: Antitumor activity against human MV4-11 cells xenografted in nu/nu mouse at 10 mg/kg, po administered daily for 2 weeks relative to control; type: functional; conditions: MV4-11, 336 h, read-out: TGI
# [22] = Tmax in Sprague-Dawley rat at 10 mg/kg, po measured for 24 hrs by LC-MS/MS analysis; type: ADME, organism-based; conditions: in vivo
# [23] = system: Protein cereblon/Receptor-type tyrosine-protein kinase FLT3 (Homo sapiens), P36888+Q96SW2 [UNDEFINED MUTATION]; experiment: PROTAC activity at CRBN/FLT3-ITD mutant in human MOLM-13 cells assessed as decrease in STAT5 level at 20 nM by Western blot analysis; type: cell-based; conditions: time <= 12.0 hrs, TDE = time-dependent effect
# [24] = Antiproliferative activity against human THP-1 cells expressing wild-type FLT3 incubated for 48 hrs by CCK8 assay; type: toxicity, cell-based
# [25] = system: Protein cereblon/Receptor-type tyrosine-protein kinase FLT3 (Homo sapiens), P36888+Q96SW2 [UNDEFINED MUTATION]; experiment: PROTAC activity at CRBN/FLT3-ITD mutant in human MOLM-13 cells assessed as decrease in S6K level incubated for 12 hrs by Western blot analysis; type: cell-based; conditions: dose <= 20.0 nM
# [26] = system: Protein cereblon/Receptor-type tyrosine-protein kinase FLT3 (Homo sapiens), P36888+Q96SW2 [UNDEFINED MUTATION]; experiment: PROTAC activity at CRBN/FLT3-ITD mutant in human MV4-11 cells assessed as protein degradation at 100 nM incubated for 24 hrs followed by compound washout measured upto 48 hrs by Western blot analysis; type: cell-based; conditions: time 72.0 hrs
# MV4-11 [27] = experiment: Induction of cell cycle arrest at G1 phase in human MV4-11 cells at 5 nM incubated for 24 hrs by PI/RNase staining based flow cytometry relative to control; type: functional
# Chain of Protein cereblon/Receptor-type tyrosine-protein kinase FLT3 (Homo sapiens), P36888+Q96SW2 [UNDEFINED MUTATION] (P36888 whole entry, looked up, stated change not applied): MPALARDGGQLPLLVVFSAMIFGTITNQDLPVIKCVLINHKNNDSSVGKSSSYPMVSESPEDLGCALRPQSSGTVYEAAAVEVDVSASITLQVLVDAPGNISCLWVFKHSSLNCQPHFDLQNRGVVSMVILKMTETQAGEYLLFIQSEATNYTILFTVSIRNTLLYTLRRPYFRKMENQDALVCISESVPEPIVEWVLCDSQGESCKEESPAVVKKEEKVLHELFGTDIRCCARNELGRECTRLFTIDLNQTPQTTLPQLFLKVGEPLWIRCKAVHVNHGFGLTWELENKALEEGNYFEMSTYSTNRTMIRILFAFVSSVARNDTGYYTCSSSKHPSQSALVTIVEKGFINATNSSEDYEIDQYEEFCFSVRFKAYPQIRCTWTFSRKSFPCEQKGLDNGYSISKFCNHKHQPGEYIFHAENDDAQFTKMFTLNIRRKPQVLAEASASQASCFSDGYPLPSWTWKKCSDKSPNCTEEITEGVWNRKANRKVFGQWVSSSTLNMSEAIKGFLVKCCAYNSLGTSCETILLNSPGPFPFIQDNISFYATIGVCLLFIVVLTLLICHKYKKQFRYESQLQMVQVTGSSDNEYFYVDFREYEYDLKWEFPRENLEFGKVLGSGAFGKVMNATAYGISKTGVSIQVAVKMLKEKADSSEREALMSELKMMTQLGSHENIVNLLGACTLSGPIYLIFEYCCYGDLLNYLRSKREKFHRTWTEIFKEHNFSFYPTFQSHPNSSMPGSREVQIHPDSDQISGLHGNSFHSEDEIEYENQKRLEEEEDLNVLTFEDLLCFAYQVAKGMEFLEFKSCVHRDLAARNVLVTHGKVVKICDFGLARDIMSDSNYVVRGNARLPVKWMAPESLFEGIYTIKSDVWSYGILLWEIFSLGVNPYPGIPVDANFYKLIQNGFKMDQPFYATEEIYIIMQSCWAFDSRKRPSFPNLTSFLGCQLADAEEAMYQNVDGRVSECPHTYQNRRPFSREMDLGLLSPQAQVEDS
# Chain of Protein cereblon/Receptor-type tyrosine-protein kinase FLT3 (Homo sapiens), P36888+Q96SW2 [UNDEFINED MUTATION] (Q96SW2 whole entry, looked up, stated change not applied): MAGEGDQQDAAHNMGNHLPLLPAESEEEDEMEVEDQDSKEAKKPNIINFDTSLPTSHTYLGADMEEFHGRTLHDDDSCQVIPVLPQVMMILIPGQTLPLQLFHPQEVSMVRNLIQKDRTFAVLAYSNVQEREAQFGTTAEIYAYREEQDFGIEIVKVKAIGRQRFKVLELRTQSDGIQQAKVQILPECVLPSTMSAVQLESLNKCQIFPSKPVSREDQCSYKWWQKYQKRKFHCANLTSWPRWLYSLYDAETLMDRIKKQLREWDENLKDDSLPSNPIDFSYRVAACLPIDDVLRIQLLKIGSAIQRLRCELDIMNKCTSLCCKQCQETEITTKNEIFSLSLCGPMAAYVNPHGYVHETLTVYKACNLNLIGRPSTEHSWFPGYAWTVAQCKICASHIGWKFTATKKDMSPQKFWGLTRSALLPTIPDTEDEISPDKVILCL
# Chain of Protein cereblon/Receptor-type tyrosine-protein kinase FLT3 (P36888 whole entry, looked up, change not shown): as the sequence (P36888 whole entry, looked up, stated change not applied) above
# Chain of Protein cereblon/Receptor-type tyrosine-protein kinase FLT3 (Q96SW2 whole entry, looked up, change not shown): as the sequence (Q96SW2 whole entry, looked up, stated change not applied) above
# Chain of Cytochrome P450 2C19 (P33261 whole entry): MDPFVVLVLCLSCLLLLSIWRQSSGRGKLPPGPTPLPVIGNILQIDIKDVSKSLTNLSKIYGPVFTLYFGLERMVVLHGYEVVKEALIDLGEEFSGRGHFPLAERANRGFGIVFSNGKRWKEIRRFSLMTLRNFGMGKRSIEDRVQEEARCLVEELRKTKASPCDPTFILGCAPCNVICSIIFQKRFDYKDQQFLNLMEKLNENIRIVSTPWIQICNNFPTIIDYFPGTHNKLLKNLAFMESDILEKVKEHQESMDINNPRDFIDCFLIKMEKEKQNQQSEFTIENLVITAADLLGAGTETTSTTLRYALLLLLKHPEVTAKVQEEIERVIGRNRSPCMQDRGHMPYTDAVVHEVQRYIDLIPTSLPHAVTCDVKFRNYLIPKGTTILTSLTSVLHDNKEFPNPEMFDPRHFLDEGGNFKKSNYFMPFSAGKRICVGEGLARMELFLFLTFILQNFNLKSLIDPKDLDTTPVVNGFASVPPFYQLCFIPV
smiles,measurement,setting,value
Cc1c(NC(=O)CN2CCN(CC3CCN(c4ccc5c(c4)C(=O)N(C4CCC(=O)NC4=O)C5=O)CC3)CC2)c[nH]c1/C=C1\C(=O)Nc2ccc(F)cc21 (stereo unspecified),IC50,MOLM-13 [1],0.17 µM
same,Activity,[2],Tde
same,Activity,Mus musculus,Active
same,Activity,MOLM-13 [3],Dose-Dependent Effect
same,inhibition in vivo at 5 mg/kg,MV4-11 [4],97.5%
same,Activity,[5],Non-Toxic
same,IC50,BaF3,0.0313 µM
same,Activity,[6],Active
same,inhibition in vivo at 1.25 mg/kg,MV4-11 [7],51.4%
same,IC50,Cytochrome P450 2C19,> 50 µM
same,Activity,[8],Dose-Dependent Effect
same,Activity,MV4-11 [9],Active
same,clearance,[10],3.5 mL/min/kg
same,Activity,[11],Tde
same,Activity,[12],Dose-Dependent Effect
same,half-life,[13],1.54 h
same,IC50,Cytochrome P450 2C8,> 50 µM
same,Activity,[14],Non-Toxic
same,DC50,[15],0.0074 µM
same,Activity,[16],Dose-Dependent Effect
same,Vd,[17],3.5 L/kg
same,Activity,MV4-11 [18],Dose-Dependent Effect
same,Activity,MV4-11 [19],Active
same,Activity,[20],inactive
same,inhibition in vivo at 10 mg/kg,MV4-11 [21],100%
same,Tmax,[22],6.2 h
same,Activity,[23],Tde
same,IC50 at 48 h,[24],15.1 µM
same,Activity,[25],Dose-Dependent Effect
same,Activity,[26],Active
same,Activity,MV4-11 [27],85.5%
